{"source": "patent US20130344501A1", "about": "“METHODS FOR PRODUCING THREE-DIMENSIONAL PHYSIOLOGICALLY RELEVANT IMMUNE TISSUE SYSTEMS UNDER LOW FLUID SHEAR CONDITIONS” (priority 2010, published 2013)", "key": {"U937 cells [1]": {"tested_on": "U937 cells", "test": "Cell viability of U937 monocytes cultured alone (with or without microcarrier beads) after exposure to 3-oxo-C12 HSL, flow cytometry", "type": "cell-based, human", "details": "for Percentage viability, U937: U937 cells exposed alone, mean ± SD, N=3; for Percentage viability, U937 / Percentage viability, U937 + beads: 20 hour exposure; for Percentage viability, U937 + beads: U937 in the presence of microcarrier beads", "protocol": "(§1) Assessment of live-, apoptotic-, and necrotic cell populations was performed with the annexin V-propidium iodide (PI) kit for flow cytometry analysis (ImmunoSource) according to the manufacturer's instructions.\n(§2) Stained cell suspensions were analyzed with an EPICS XL flow cytometer (Beckman-Coulter) or a Cytomics FC 500 system (Beckman-Coulter), equipped with an argon laser and filters for adequate excitation of the chosen fluorophores. Forward scatter, side scatter, FITC-, PI and PE-Cy5 emissions were measured and a total of 10,000 cells were recorded for each sample. The respective cell populations were delimited to eliminate background signals originating from cell debris. To assess background fluorescent signals from the tested cell populations, non-stained samples were included.\nAfter 72 hours of co-cultivation, aggregates containing 2×10^6 cells were seeded into 6-well plates containing fresh medium (5 ml total volume). Subsequently, aggregates were spiked with 5, 10 or 100 μM 3-oxo-C12 HSL (Sigma-Aldrich) (starting from a 20 mM stock solution in DMSO, stored at −20° C.). Equal volumes of DMSO, containing the respective amounts of 3-oxo-C12 HSL, were added to each well (25 μl) and a solvent control (25 μl DMSO) was included in each experiment. Six-well plates were placed at 37° C. in a 5% CO2 environment and incubated for 20 hours. For exposure assays of monocytes to 3-oxo-C12 HSL, 2×10^6 U937 cells/well were transferred in 6-well plates. To assess the influence of 3-oxo-C12 HSL on monocytes cultured on microcarrier beads, collagen I-coated beads were added to the cells at the same concentration as for seeding three-dimensional cultures (1 bead per 2500 cells). Subsequently, monocyte cultures (with or without microcarrier beads) were spiked with 3-oxo-C12 HSL (see above). A solvent control was included. […] Cell viability was assayed with trypan blue (0.4%) (Sigma) and/or with the annexin V-PI kit (ImmunoSource) (see above). […] FIG. 9B are examples of the three-dimensional A549-U937 co-culture model exposed to 100 μM 3-oxo-C12 HSL and to the solvent control DMSO. The presented cell population is gated for CD45 positive cells and thus only includes monocytes/macrophages. For FIGS. 9A-B, “I” represents the percentage of dead cells, while “H” is the viable cell population. Consequently, cell viability was further assessed based on the shift in forward scatter signal (see Table 1)."}, "A549 3-D": {"tested_on": "A549 3-D", "test": "Cell viability of three-dimensional A549 monotypic cultures after exposure to 3-oxo-C12 HSL, flow cytometry", "type": "cell-based, human", "details": "for Percentage viability, A549 3-D: A549 exposed alone, 20 hour exposure", "protocol": "The three-dimensional A549 monotypic cultures were made as previously described (Carterson et al., 2005).\nas §1, §2\nAfter 72 hours of co-cultivation, aggregates containing 2×10^6 cells were seeded into 6-well plates containing fresh medium (5 ml total volume). Subsequently, aggregates were spiked with 5, 10 or 100 μM 3-oxo-C12 HSL (Sigma-Aldrich) (starting from a 20 mM stock solution in DMSO, stored at −20° C.). Equal volumes of DMSO, containing the respective amounts of 3-oxo-C12 HSL, were added to each well (25 μl) and a solvent control (25 μl DMSO) was included in each experiment. Six-well plates were placed at 37° C. in a 5% CO2 environment and incubated for 20 hours. For exposure assays of monocytes to 3-oxo-C12 HSL, 2×10^6 U937 cells/well were transferred in 6-well plates. To assess the influence of 3-oxo-C12 HSL on monocytes cultured on microcarrier beads, collagen I-coated beads were added to the cells at the same concentration as for seeding three-dimensional cultures (1 bead per 2500 cells). Subsequently, monocyte cultures (with or without microcarrier beads) were spiked with 3-oxo-C12 HSL (see above). A solvent control was included. After 20 hours incubation, cells were processed for flow cytometry analysis. Cell viability was assayed with trypan blue (0.4%) (Sigma) and/or with the annexin V-PI kit (ImmunoSource) (see above). […] FIG. 9B are examples of the three-dimensional A549-U937 co-culture model exposed to 100 μM 3-oxo-C12 HSL and to the solvent control DMSO. The presented cell population is gated for CD45 positive cells and thus only includes monocytes/macrophages. For FIGS. 9A-B, “I” represents the percentage of dead cells, while “H” is the viable cell population. Consequently, cell viability was further assessed based on the shift in forward scatter signal (see Table 1)."}, "U937 cells [2]": {"tested_on": "U937 cells", "details": "this and other studies (Tateda 2003, Kravchenko 2006, Li 2009); cited from earlier work"}}, "data": [{"smiles": "CCCCCCCCCC(=O)CC(=O)N[C@H]1CCOC1=O", "note": "[3-oxo-C12 HSL, N-(3-oxododecanoyl)-Lhomoserine lactone]", "values": [{"measurement": "loss of viability of pure cultures of U937 cells", "setting": "U937 cells [1]; 100 μM, after 2 hours of exposure", "value": "started to show significant loss of viability"}, {"measurement": "viability of pure cultures of U937 cells", "setting": "U937 cells [1]; 100 μM, after 5 hours of exposure", "value": 50, "unit": "%"}, {"measurement": "Percentage viability, U937", "setting": "U937 cells [1]; 5 μM", "value": "82.8 ± 0.2", "unit": "%"}, {"measurement": "Percentage viability, U937", "setting": "U937 cells [1]; 10 μM", "value": "75.6 ± 0.6", "unit": "%"}, {"measurement": "Percentage viability, U937 + beads", "setting": "U937 cells [1]; 5 μM", "value": "89.1 ± 1.4", "unit": "%"}, {"measurement": "Percentage viability, U937 + beads", "setting": "U937 cells [1]; 10 μM", "value": "90.9 ± 0.4", "unit": "%"}, {"measurement": "Percentage viability, U937 + beads", "setting": "U937 cells [1]; 100 μM", "value": "5.3 ± 0.4", "unit": "%"}, {"measurement": "monocyte cell viability", "setting": "U937 cells [1]; lower concentrations, 5 μM and 10 μM", "value": "did not induce significant differences"}, {"measurement": "cell death in A549 three-dimensional monotypic cultures", "setting": "A549 3-D; 5, 10 and 100 μM", "value": "did not induce cell death"}, {"measurement": "Percentage viability, A549 3-D", "setting": "A549 3-D; 5 μM", "value": "97.7 ± 0.00", "unit": "%"}, {"measurement": "Percentage viability, A549 3-D", "setting": "A549 3-D; 10 μM", "value": "97.8 ± 0.00", "unit": "%"}, {"measurement": "Percentage viability, A549 3-D", "setting": "A549 3-D; 100 μM", "value": "94.9 ± 0.02", "unit": "%"}, {"measurement": "concentrations at which apoptosis is induced in pure cultures of monocytes and macrophages", "setting": "U937 cells [2]", "value": "above 25 μM"}]}]}
